Tests used:
Assay type in all cases: cell-based
Calu-1 cells = assay: Anti-proliferation (viability) of NSCLC Calu-1 cells, 3 days (Table 7, FIG. 2B); conditions: Homo sapiens, 72 h; Calu-1 cells, 3 days, 10-point serial dilution; read-out: GI IC50 in Calu-1
Summary of the method: (§1)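 Viability after a 10-point dilution series of heterobifunctional compounds, with exposure of 6 days for ER+ breast T47D cells and 3 days for NSCLC Calu-1 cells.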

T47D cells = assay: Anti-proliferation (viability) of ER+ breast cancer T47D cells, 6 days (Table 7, FIG. 2B); conditions: Homo sapiens, 144 h; T47D cells, 6 days, 10-point serial dilution; read-out: GI IC50 in T47D
Summary of the method: as §1

CDK4 = CDK4 (Homo sapiens, UniProt P11802+Q16531); assay: CDK4 percentage degradation in Calu-1 cells (Table 6); set-up: Cells that express cyclin D1-3 and CDK4/6 proteins were treated with heterobifunctional compounds; endogenous in cells; host or cells: Calu-1; conditions: 16 hours; for inhibition at 0.04 µM: 40 nM; for inhibition at 0.2 µM: 200 nM
Summary of the method: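 Calu-1 cells exposed to heterobifunctional compounds at 40 nM or 200 nM for 16 h. Cyclin D1 and CDK4 levels measured by Western blot of RIPA lysates (BCA-normalised loading), bands quantified by densitometry and expressed as percentage degradation.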

MCF7 cells = assay: Anti-proliferation (viability) of MCF7 cells (Table 7, FIG. 2B); conditions: Homo sapiens, MCF7, MCF7 cells, 3-6 days, 10-point serial dilution; read-out: GI IC50 in MCF-7

Chain of CDK4 (P11802 2-303 limits assumed): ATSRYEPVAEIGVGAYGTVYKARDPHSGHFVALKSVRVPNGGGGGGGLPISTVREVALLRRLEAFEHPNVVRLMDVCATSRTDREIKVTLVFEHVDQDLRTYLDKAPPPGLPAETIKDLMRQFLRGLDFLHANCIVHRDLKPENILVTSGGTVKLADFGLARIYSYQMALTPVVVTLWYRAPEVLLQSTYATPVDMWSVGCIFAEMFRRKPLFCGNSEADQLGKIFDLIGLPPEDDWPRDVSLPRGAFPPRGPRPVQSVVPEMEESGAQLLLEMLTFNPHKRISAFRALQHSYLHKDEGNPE
Chain of CDK4 (P24385 whole entry partner): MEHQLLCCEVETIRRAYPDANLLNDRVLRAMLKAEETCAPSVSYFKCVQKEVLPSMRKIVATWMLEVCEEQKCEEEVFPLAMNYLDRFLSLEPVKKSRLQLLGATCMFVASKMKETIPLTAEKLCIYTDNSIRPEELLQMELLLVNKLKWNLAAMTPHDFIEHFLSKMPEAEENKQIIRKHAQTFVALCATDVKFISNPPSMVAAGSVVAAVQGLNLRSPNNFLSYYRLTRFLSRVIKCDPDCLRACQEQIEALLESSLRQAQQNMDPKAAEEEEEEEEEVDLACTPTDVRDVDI
Chain of CDK4 (Q16531 2-1140 limits assumed): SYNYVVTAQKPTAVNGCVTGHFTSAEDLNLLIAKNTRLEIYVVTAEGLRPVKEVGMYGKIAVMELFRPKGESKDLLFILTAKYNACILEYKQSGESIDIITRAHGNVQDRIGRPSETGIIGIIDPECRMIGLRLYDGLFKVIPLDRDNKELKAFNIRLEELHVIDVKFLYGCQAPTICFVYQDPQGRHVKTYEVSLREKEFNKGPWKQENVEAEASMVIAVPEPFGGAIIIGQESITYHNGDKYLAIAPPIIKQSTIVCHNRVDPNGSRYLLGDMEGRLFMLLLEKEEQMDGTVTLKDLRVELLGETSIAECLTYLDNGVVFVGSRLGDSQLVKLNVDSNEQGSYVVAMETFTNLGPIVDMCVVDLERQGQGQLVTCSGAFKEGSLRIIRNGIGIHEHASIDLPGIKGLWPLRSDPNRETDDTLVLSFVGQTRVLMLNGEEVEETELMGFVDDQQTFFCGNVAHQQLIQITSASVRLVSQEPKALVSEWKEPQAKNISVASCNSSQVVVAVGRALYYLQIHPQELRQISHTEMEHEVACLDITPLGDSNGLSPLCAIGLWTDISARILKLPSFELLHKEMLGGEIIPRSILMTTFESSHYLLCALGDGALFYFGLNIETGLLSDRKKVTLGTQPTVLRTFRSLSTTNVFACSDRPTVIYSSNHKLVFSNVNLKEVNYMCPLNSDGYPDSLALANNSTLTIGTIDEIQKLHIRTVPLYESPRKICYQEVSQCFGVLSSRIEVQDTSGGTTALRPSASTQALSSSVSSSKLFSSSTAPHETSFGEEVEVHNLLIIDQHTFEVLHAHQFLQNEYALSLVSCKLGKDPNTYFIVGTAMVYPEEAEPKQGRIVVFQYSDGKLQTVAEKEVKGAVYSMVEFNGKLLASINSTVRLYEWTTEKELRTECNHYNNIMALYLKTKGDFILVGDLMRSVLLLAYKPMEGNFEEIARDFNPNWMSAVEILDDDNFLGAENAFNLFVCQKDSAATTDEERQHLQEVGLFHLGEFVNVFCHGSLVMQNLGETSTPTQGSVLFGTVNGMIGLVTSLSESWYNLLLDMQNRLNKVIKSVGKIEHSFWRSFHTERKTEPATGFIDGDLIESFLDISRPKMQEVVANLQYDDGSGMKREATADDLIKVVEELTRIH

Row | Structure (SMILES) | IC50 (Calu-1 cells) [nM] | IC50 (T47D cells) [nM] | inhibition at 0.04 µM (CDK4) [%] | inhibition at 0.2 µM (CDK4) [%] | IC50 (MCF7 cells) [nM]
1 | CNc1ccc(C(=O)Nc2ccc(N(C)C)nn2)c(NC2CC(CCNC(=O)CN3CCN(c4ccc(Nc5ncc6c(C)c(C(C)=O)c(=O)n(C7CCCC7)c6n5)nc4)CC3)C2)n1 (stereo not shown) [CPD-34, 2-((3-(2-(2-(4-(6-((6-Acetyl-8-cyclopentyl-5-methyl-7-oxo-7,8-dihydropyrido[2,3-d]pyrimidin-2-yl)amino)pyridin-3-yl)piperazin-1-yl)acetamido)ethyl)cyclobutyl)amino)-N-(6-(dimethylamino)pyridazin-3-yl)-6-(methylamino)nicotinamide] | ≤ 10 | ≤ 50 | > 80 | > 80 | < 50
2 | CNc1ccc(C(=O)Nc2ccc3ncn(C)c3n2)c(NCCCCCNC(=O)CN2CCN(c3ccc(Nc4ncc5c(C)c(C(C)=O)c(=O)n(C6CCCC6)c5n4)nc3)CC2)n1 [CPD-38, 2-((5-(2-(4-(6-((6-Acetyl-8-cyclopentyl-5-methyl-7-oxo-7,8-dihydropyrido[2,3-d]pyrimidin-2-yl)amino)pyridin-3-yl)piperazin-1-yl)acetamido)pentyl)amino)-N-(3-methyl-3H-imidazo[4,5-b]pyridin-5-yl)-6-(methylamino)nicotinamide] | ≤ 10 | 50 to 100 | 50 to 80 | > 80 | > 100
3 | CNc1ccc(C(=O)Nc2cc(C)n(C)n2)c(NCCCCCNC(=O)CN2CCN(c3ccc(Nc4ncc5c(C)c(C(C)=O)c(=O)n(C6CCCC6)c5n4)nc3)CC2)n1 [CPD-50, 2-((5-(2-(4-(6-((6-acetyl-8-cyclopentyl-5-methyl-7-oxo-7,8-dihydropyrido[2,3-d]pyrimidin-2-yl)amino)pyridin-3-yl)piperazin-1-yl)acetamido)pentyl)amino)-N-(1,5-dimethyl-1H-pyrazol-3-yl)-6-(methylamino)nicotinamide] | ≤ 10 | 50 to 100 | 50 to 80 | 50 to 80 | < 50
4 | CNc1ccc(C(=O)Nc2cccc(C3CC3)n2)c(NCCCCCNC(=O)CN2CCN(c3ccc(Nc4ncc5c(C)c(C(C)=O)c(=O)n(C6CCCC6)c5n4)nc3)CC2)n1 [CPD-51, 2-((5-(2-(4-(6-((6-Acetyl-8-cyclopentyl-5-methyl-7-oxo-7,8-dihydropyrido[2,3-d]pyrimidin-2-yl)amino)pyridin-3-yl)piperazin-1-yl)acetamido)pentyl)amino)-N-(6-cyclopropylpyridin-2-yl)-6-(methylamino)nicotinamide] | ≤ 10 | 50 to 100 | 50 to 80 | 50 to 80 | 50 to 100
5 | CCc1ccc(C(=O)Nc2ccc(N(C)C)nn2)c(NCCCCCNC(=O)CN2CCN(c3ccc(Nc4ncc5c(C)c(C(C)=O)c(=O)n(C6CCCC6)c5n4)nc3)CC2)n1 [CPD-54, 2-((5-(2-(4-(6-((6-Acetyl-8-cyclopentyl-5-methyl-7-oxo-7,8-dihydropyrido[2,3-d]pyrimidin-2-yl)amino)pyridin-3-yl)piperazin-1-yl)acetamido)pentyl)amino)-N-(6-(dimethylamino)pyridazin-3-yl)-6-ethylnicotinamide] | ≤ 10 | 50 to 100 | 50 to 80 | 50 to 80 | < 50
6 | CNc1ccc(C(=O)Nc2ccc(N(C)C)nn2)c(NC2CC3(C2)CN(C(=O)CCN2CCN(c4ccc(Nc5ncc6c(C)c(C(C)=O)c(=O)n(C7CCCC7)c6n5)nc4)CC2)C3)n1 [CPD-62, 2-((2-(3-(4-(6-((6-Acetyl-8-cyclopentyl-5-methyl-7-oxo-7,8-dihydropyrido[2,3-d]pyrimidin-2-yl)amino)pyridin-3-yl)piperazin-1-yl)propanoyl)-2-azaspiro[3.3]heptan-6-yl)amino)-N-(6-(dimethylamino)pyridazin-3-yl)-6-(methylamino)nicotinamide] | ≤ 10 | ≤ 50 | > 80 | > 80 | < 50
7 | CC(=O)c1c(C)c2cnc(Nc3ccc(N4CCN(CC(=O)NCCCCCNc5nc(C(C)C)ccc5C(=O)Nc5ccc(N(C)C)nn5)CC4)cn3)nc2n(C2CCCC2)c1=O [CPD-63, 2-((5-(2-(4-(6-((6-Acetyl-8-cyclopentyl-5-methyl-7-oxo-7,8-dihydropyrido[2,3-d]pyrimidin-2-yl)amino)pyridin-3-yl)piperazin-1-yl)acetamido)pentyl)amino)-N-(6-(dimethylamino)pyridazin-3-yl)-6-isopropylnicotinamide] | ≤ 10 | ≤ 50 | > 80 | > 80 | < 50
8 | [2H]C([2H])([2H])Nc1ccc(C(=O)Nc2ccc(N(C)C)nn2)c(NCCCCCNC(=O)CN2CCN(c3ccc(Nc4ncc5c(C)c(C(C)=O)c(=O)n(C6CCCC6)c5n4)nc3)CC2)n1 [CPD-66, 2-((5-(2-(4-(6-((6-Acetyl-8-cyclopentyl-5-methyl-7-oxo-7,8-dihydropyrido[2,3-d]pyrimidin-2-yl)amino)pyridin-3-yl)piperazin-1-yl)acetamido)pentyl)amino)-N-(6-(dimethylamino)pyridazin-3-yl)-6-((methyl-d3)amino)nicotinamide] | ≤ 10 | 50 to 100 | 50 to 80 | 50 to 80 | > 100
9 | CNc1ccc(C(=O)Nc2ccc(N(C)C)nn2)c(NC[C@H]2CC[C@H](NC(=O)CN3CCN(c4ccc(Nc5ncc6c(C)c(C(C)=O)c(=O)n(C7CCCC7)c6n5)nc4)CC3)CC2)n1 [CPD-73] | 10 to 50 | 50 to 100 | 50 to 80 | 50 to 80 | 50 to 100
10 | CNc1ccc(C(=O)Nc2ccc(N(C)C)nn2)c(NC2CC(CNC(=O)CN3CCN(c4ccc(Nc5ncc6c(C)c(C(C)=O)c(=O)n(C7CCCC7)c6n5)nc4)CC3)C2)n1 (stereo not shown) [CPD-79, 2-((3-((2-(4-(6-((6-Acetyl-8-cyclopentyl-5-methyl-7-oxo-7,8-dihydropyrido[2,3-d]pyrimidin-2-yl)amino)pyridin-3-yl)piperazin-1-yl)acetamido)methyl)cyclobutyl)amino)-N-(6-(dimethylamino)pyridazin-3-yl)-6-(methylamino)nicotinamide] | ≤ 10 | ≤ 50 | 50 to 80 | 50 to 80 | < 50
11 | CNc1ccc(C(=O)Nc2ccc(N(C)C)nn2)c(NC2CC3(C2)CC(OCC(=O)N2CCN(c4ccc(Nc5ncc6c(C)c(C(C)=O)c(=O)n(C7CCCC7)c6n5)nc4)CC2)C3)n1 (stereo not shown) [CPD-84, 2-((6-(2-(4-(6-((6-Acetyl-8-cyclopentyl-5-methyl-7-oxo-7,8-dihydropyrido[2,3-d]pyrimidin-2-yl)amino)pyridin-3-yl)piperazin-1-yl)-2-oxoethoxy)spiro[3.3]heptan-2-yl)amino)-N-(6-(dimethylamino)pyridazin-3-yl)-6-(methylamino)nicotinamide] | 10 to 50 | 50 to 100 | < 30 | < 30 | > 100
12 | CNc1ccc(C(=O)Nc2ccc(N(C)C)nn2)c(NC2CC(CC(=O)NCCN3CCN(c4ccc(Nc5ncc6c(C)c(C(C)=O)c(=O)n(C7CCCC7)c6n5)nc4)CC3)C2)n1 (stereo not shown) [CPD-101, 2-((3-(2-((2-(4-(6-((6-Acetyl-8-cyclopentyl-5-methyl-7-oxo-7,8-dihydropyrido[2,3-d]pyrimidin-2-yl)amino)pyridin-3-yl)piperazin-1-yl)ethyl)amino)-2-oxoethyl)cyclobutyl)amino)-N-(6-(dimethylamino)pyridazin-3-yl)-6-(methylamino)nicotinamide] | ≤ 10 | 50 to 100 | 50 to 80 | > 80 | < 50
13 | CNc1ccc(C(=O)Nc2cccc(C3CC3)n2)c(NC2CC3(C2)CN(C(=O)CCN2CCN(c4ccc(Nc5ncc6c(C)c(C(C)=O)c(=O)n(C7CCCC7)c6n5)nc4)CC2)C3)n1 [CPD-103, 2-((2-(3-(4-(6-((6-Acetyl-8-cyclopentyl-5-methyl-7-oxo-7,8-dihydropyrido[2,3-d]pyrimidin-2-yl)amino)pyridin-3-yl)piperazin-1-yl)propanoyl)-2-azaspiro[3.3]heptan-6-yl)amino)-N-(6-cyclopropylpyridin-2-yl)-6-(methylamino)nicotinamide] | ≤ 10 | 50 to 100 | > 80 | > 80 | > 100
14 | CNc1ccc(C(=O)Nc2ccc(N(C)C)nn2)c(NC2CC3(C2)CN(C(=O)C2(CN4CCN(c5ccc(Nc6ncc7c(C)c(C(C)=O)c(=O)n(C8CCCC8)c7n6)nc5)CC4)CC2)C3)n1 [CPD-115, 2-((2-(1-((4-(6-((6-Acetyl-8-cyclopentyl-5-methyl-7-oxo-7,8-dihydropyrido[2,3-d]pyrimidin-2-yl)amino)pyridin-3-yl)piperazin-1-yl)methyl)cyclopropane-1-carbonyl)-2-azaspiro[3.3]heptan-6-yl)amino)-N-(6-(dimethylamino)pyridazin-3-yl)-6-(methylamino)nicotinamide] | ≤ 10 | ≤ 50 | 50 to 80 | 50 to 80 | > 100
